Source: ChEMBL document CHEMBL3779873, “Rubrolide analogues and their derived lactams as potential anticancer agents” (Medchemcomm, 2016)
Calls of active or inactive are those of the source. The calls are words filed in the database; no cut-off is given here.

Experiments:
HL-60 [1] = assay: Induction of apoptosis in human HL60 cells assessed as chromatin condensation at 0.5 uM after 24 hrs by giemsa staining-based light microscopy analysis; type: functional, cell-based
[2] = Cytotoxicity against human SF295 cells after 72 hrs by MTT assay; type: functional, SF-295
HL-60 [3] = assay: Induction of cell cycle arrest in human HL60 cells assessed as accumulation at sub-G0/G1 phase at 0.5 uM after 24 hrs by annexin V/propidium iodide staining based flow cytometry (reference value: 6.10 +/- 0.28 %); type: functional
HL-60 [4] = assay: Induction of apoptosis in human HL60 cells assessed as nuclear fragmentation at 0.5 uM after 24 hrs by giemsa staining-based light microscopy analysis; type: functional, cell-based
[5] = Cytotoxicity against human HCT116 cells after 72 hrs by MTT assay; type: functional, HCT-116
HL-60 [6] = assay: Induction of apoptosis in human HL60 cells assessed as cell shrinkage at 0.5 uM after 24 hrs by giemsa staining-based light microscopy analysis; type: functional
HL-60 [7] = assay: Induction of cell cycle arrest in human HL60 cells assessed as accumulation at S phase at 0.5 uM after 24 hrs by annexin V/propidium iodide staining based flow cytometry (reference value: 27.64 +/- 2.15%); type: functional
HL-60 [8] = assay: Induction of cell cycle arrest in human HL60 cells assessed as accumulation at G2/M phase at 0.5 uM after 24 hrs by annexin V/propidium iodide staining based flow cytometry (reference value: 19.04 +/- 1.1%); type: functional
[9] = Cytotoxicity against human OVCAR8 cells after 72 hrs by MTT assay; type: functional, OVCAR-8
HL-60 [10] = assay: Induction of cell cycle arrest in human HL60 cells assessed as accumulation at G0/G1 phase at 0.5 uM after 24 hrs by annexin V/propidium iodide staining based flow cytometry (reference value: 45.81 +/- 3.16%); type: functional
[11] = Cytotoxicity against human HL60 cells after 72 hrs by MTT assay; type: functional, HL-60
HL-60 [12] = assay: Induction of apoptosis in human HL60 cells assessed as decrease in viable cells after 24 hrs by acridine orange/ethidium bromide staining based fluorescence microscopy; type: functional, cell-based
HL-60 [13] = assay: Induction of cell cycle arrest in human HL60 cells assessed as accumulation at sub-G0/G1 phase at 10 uM after 24 hrs by annexin V/propidium iodide staining based flow cytometry (reference value: 6.10 +/- 0.28 %); type: functional
HL-60 [14] = assay: Induction of apoptosis in human HL60 cells assessed as DNA fragmentation after 24 hrs by annexin V/propidium iodide staining based flow cytometry; type: functional, cell-based
HL-60 [15] = assay: Induction of apoptosis in human HL60 cells assessed as mitochondrial depolarization at 5 uM after 24 hrs by rhodamine-123 as fluorescent dye based flow cytometry; type: functional
HL-60 [16] = assay: Induction of apoptosis in human HL60 cells assessed as mitochondrial depolarization at 10 uM after 24 hrs by rhodamine-123 as fluorescent dye based flow cytometry; type: functional
HL-60 [17] = assay: Induction of cell cycle arrest in human HL60 cells assessed as accumulation at sub-G0/G1 phase at 5 uM after 24 hrs by annexin V/propidium iodide staining based flow cytometry (reference value: 6.10 +/- 0.28 %); type: functional
HL-60 [18] = assay: Induction of cell cycle arrest in human HL60 cells assessed as accumulation at S phase at 2.5 uM after 24 hrs by annexin V/propidium iodide staining based flow cytometry (reference value: 27.64 +/- 2.15 %); type: functional
HL-60 [19] = assay: Induction of apoptosis in human HL60 cells assessed as increase in apoptotic cells after 24 hrs by acridine orange/ethidium bromide staining based fluorescence microscopy; type: functional, cell-based
[20] = Cytotoxicity against mouse L929 cells after 72 hrs by MTT assay; type: cell-based; details: read-out: RC50
HL-60 [21] = assay: Induction of apoptosis in human HL60 cells assessed as chromatin condensation at 2.5 to 10 uM after 24 hrs by giemsa staining-based light microscopy analysis; type: functional, cell-based
HL-60 [22] = assay: Induction of apoptosis in human HL60 cells assessed as reduction in cellular and nuclear volumes at 2.5 to 10 uM after 24 hrs by giemsa staining-based light microscopy analysis; type: functional, cell-based
[23] = Cytotoxicity against human SF295 cells assessed as reduction in cell viability at 25 ug/mL after 72 hrs by MTT assay; type: functional, SF-295
HL-60 [24] = assay: Induction of apoptosis in human HL60 cells assessed as intranuclear vacuoles at 2.5 to 10 uM after 24 hrs by giemsa staining-based light microscopy analysis; type: functional, cell-based
[25] = Cytotoxicity against human HCT116 cells assessed as reduction in cell viability at 25 ug/mL after 72 hrs by MTT assay; type: functional, HCT-116
HL-60 [26] = assay: Induction of apoptosis in human HL60 cells assessed as phosphatidylserine externalization at 10 uM after 24 hrs by annexin V/propidium iodide staining based flow cytometry; type: functional
HL-60 [27] = assay: Induction of cell cycle arrest in human HL60 cells assessed as accumulation at G2/M phase at 10 uM after 24 hrs by annexin V/propidium iodide staining based flow cytometry (reference value: 19.04 +/- 1.10 %); type: functional
HL-60 [28] = assay: Induction of apoptosis in human HL60 cells assessed as chromatolysis at 2.5 to 10 uM after 24 hrs by giemsa staining-based light microscopy analysis; type: functional, cell-based
HL-60 [29] = assay: Induction of apoptosis in human HL60 cells assessed as decrease in viable cells at 2.5 uM after 24 hrs by acridine orange/ethidium bromide staining based fluorescence microscopy; type: functional
HL-60 [30] = assay: Induction of cell cycle arrest in human HL60 cells assessed as accumulation at G2/M phase at 5 uM after 24 hrs by annexin V/propidium iodide staining based flow cytometry (reference value: 19.04 +/- 1.10 %); type: functional
HL-60 [31] = assay: Induction of apoptosis in human HL60 cells assessed as increase in necrotic cells at 10 uM after 24 hrs by acridine orange/ethidium bromide staining based fluorescence microscopy; type: functional
HL-60 [32] = assay: Induction of apoptosis in human HL60 cells assessed as mitochondrial depolarization at 2.5 uM after 24 hrs by rhodamine-123 as fluorescent dye based flow cytometry; type: functional
HL-60 [33] = assay: Induction of apoptosis in human HL60 cells assessed as cytoplasmic budding at 2.5 to 10 uM after 24 hrs by giemsa staining-based light microscopy analysis; type: functional, cell-based
HL-60 [34] = assay: Induction of apoptosis in human HL60 cells assessed as increase in apoptotic cells at 10 uM after 24 hrs by acridine orange/ethidium bromide staining based fluorescence microscopy; type: functional
HL-60 [35] = assay: Induction of apoptosis in human HL60 cells assessed as decrease in viable cells at 5 uM after 24 hrs by acridine orange/ethidium bromide staining based fluorescence microscopy; type: functional
HL-60 [36] = assay: Induction of apoptosis in human HL60 cells assessed as phosphatidylserine externalization at 2.5 uM after 24 hrs by annexin V/propidium iodide staining based flow cytometry; type: functional
HL-60 [37] = assay: Induction of apoptosis in human HL60 cells assessed as increase in necrotic cells after 24 hrs by acridine orange/ethidium bromide staining based fluorescence microscopy; type: functional, cell-based
HL-60 [38] = assay: Induction of apoptosis in human HL60 cells assessed as increase in apoptotic cells at 2.5 uM after 24 hrs by acridine orange/ethidium bromide staining based fluorescence microscopy; type: functional
HL-60 [39] = assay: Induction of apoptosis in human HL60 cells assessed as decrease in viable cells at 10 uM after 24 hrs by acridine orange/ethidium bromide staining based fluorescence microscopy; type: functional
HL-60 [40] = assay: Induction of apoptosis in human HL60 cells assessed as mitochondrial depolarization after 24 hrs by rhodamine-123 as fluorescent dye based flow cytometry; type: functional, cell-based
HL-60 [41] = assay: Induction of cell cycle arrest in human HL60 cells assessed as accumulation at G0/G1 phase at 10 uM after 24 hrs by annexin V/propidium iodide staining based flow cytometry (reference value: 45.81 +/- 3.16 %); type: functional
HL-60 [42] = assay: Induction of cell cycle arrest in human HL60 cells assessed as accumulation at S phase at 10 uM after 24 hrs by annexin V/propidium iodide staining based flow cytometry (reference value: 27.64 +/- 2.15 %); type: functional
HL-60 [43] = assay: Induction of cell cycle arrest in human HL60 cells assessed as accumulation at G0/G1 phase at 5 uM after 24 hrs by annexin V/propidium iodide staining based flow cytometry (reference value: 45.81 +/- 3.16 %); type: functional
HL-60 [44] = assay: Induction of cell cycle arrest in human HL60 cells assessed as accumulation at G0/G1 phase at 2.5 uM after 24 hrs by annexin V/propidium iodide staining based flow cytometry (reference value: 45.81 +/- 3.16 %); type: functional
[45] = Cytotoxicity against human OVCAR8 cells assessed as reduction in cell viability at 25 ug/mL after 72 hrs by MTT assay; type: functional, OVCAR-8
HL-60 [46] = assay: Induction of cell cycle arrest in human HL60 cells assessed as accumulation at sub-G0/G1 phase at 2.5 uM after 24 hrs by annexin V/propidium iodide staining based flow cytometry (reference value: 6.10 +/- 0.28 %); type: functional
HL-60 [47] = assay: Induction of apoptosis in human HL60 cells assessed as phosphatidylserine externalization at 5 uM after 24 hrs by annexin V/propidium iodide staining based flow cytometry; type: functional
HL-60 [48] = assay: Induction of cell cycle arrest in human HL60 cells assessed as accumulation at G2/M phase at 2.5 uM after 24 hrs by annexin V/propidium iodide staining based flow cytometry (reference value: 19.04 +/- 1.10 %); type: functional
HL-60 [49] = assay: Induction of cell cycle arrest in human HL60 cells assessed as accumulation at S phase at 5 uM after 24 hrs by annexin V/propidium iodide staining based flow cytometry (reference value: 27.64 +/- 2.15 %); type: functional

## COc1cccc2c1C(=O)c1c(O)c3c(c(O)c1C2=O)C[C@@](O)(C(=O)CO)C[C@@H]3O[C@H]1C[C@H](N)[C@H](O)[C@H](C)O1 [DOXORUBICIN]
HL-60 [1]
  Activity: Active
[2]
  RC50: 0.44 µM
HL-60 [3]
  Activity: 46.25%
HL-60 [4]
  Activity: Active
[5]
  RC50: 0.04 µM
HL-60 [6]
  Activity: Active
HL-60 [7]
  Activity: 15.5%
HL-60 [8]
  Activity: 2.59%
[9]
  RC50: 0.62 µM
HL-60 [10]
  Activity: 33.78%
[11]
  RC50: 0.02 µM

## COc1ccc(Br)cc1C1=C(Br)C(=O)O/C1=C\c1ccc(C(F)(F)F)cc1
HL-60 [12]
  Activity: Dose-dependent effect
HL-60 [13]
  Activity: 48.52%
HL-60 [14]
  Activity: Dose-dependent effect
[2]
  RC50: 4.9 µM
HL-60 [15]
  Activity: 47%
HL-60 [16]
  Activity: 68%
HL-60 [17]
  Activity: 23.17%
HL-60 [18]
  Activity: 13.75%
HL-60 [19]
  Activity: Dose-dependent effect
[20]
  CC50 at 72 h: > 50 µM
HL-60 [21]
  Activity: Active
HL-60 [22]
  Activity: Active
[23]
  Activity: 91.06%
HL-60 [24]
  Activity: Active
[25]
  Activity: 98.22%
HL-60 [26]
  Activity: 48.1%
HL-60 [27]
  Activity: 9.12%
HL-60 [28]
  Activity: Active
HL-60 [29]
  Activity: 67.1%
[5]
  RC50: 2.98 µM
HL-60 [30]
  Activity: 2.86%
HL-60 [31]
  Activity: 16.7%
HL-60 [32]
  Activity: 35.1%
HL-60 [33]
  Activity: Active
HL-60 [34]
  Activity: 71.5%
HL-60 [35]
  Activity: 38.8%
HL-60 [36]
  Activity: 16.2%
[9]
  RC50: 2.74 µM
HL-60 [37]
  Activity: Dose-dependent effect
HL-60 [38]
  Activity: 31.3%
HL-60 [39]
  Activity: 11.8%
HL-60 [40]
  Activity: Dose-dependent effect
HL-60 [41]
  Activity: 31.64%
HL-60 [42]
  Activity: 11.81%
HL-60 [43]
  Activity: 72.43%
HL-60 [44]
  Activity: 72.81%
[45]
  Activity: 99.5%
HL-60 [46]
  Activity: 15.27%
HL-60 [47]
  Activity: 33.3%
[11]
  RC50: 3.58 µM
HL-60 [48]
  Activity: 5.92%
HL-60 [49]
  Activity: 12.93%
